Experimental data published in patent publication US20170189465A1, “Anti Hallucination Drug” (Kracie Pharma, Ltd., priority 2014, published 2017).

Columns and labels:
Type in all cases: in vivo
[1] = tested on: hallucinogen-induced head-twitching response in mice; experiment: DOI-induced head-twitching response in mice after oral administration once a day for 14 days; conditions: oral once a day for 14 days, DOI 1 mg/kg i.p.
Protocol: (§1) Four-week-old ICR male mice (17-19 g) were purchased from Japan SLC, Inc. and subjected to the experiment after an acclimatization period of a week. The animals were kept at a room temperature of 23±2° C. at a humidity of 55±10% in a 12-hour cycle of turning on the light at 8:00 and turning off the light at 20:00. The experimental animals were allowed to drink water and eat freely during the period of the experiment.
(§2) In a physiological saline solution, (+/−) 2,5-dimethoxy-4-iodoamphetamine (DOI: sigma Lot 0.012M4812V), which is a hallucinogen, was dissolved. Immediately after intraperitoneally injecting the solution to the mice at 1 mg/kg, the mice were moved to a breeding cage without a floor mat. After five minutes, the numbers of head-twitches of the mice (used as an indicator of a hallucinatory symptom) were counted for five minutes (Egashira et al., Repeated administration of Yokukansan inhibits DOI-induced head-twitch response and decreases expression of 5-hydroxytryptamine (5-HT) 2A receptors in the prefrontal cortex., Prog Neuropsychopharmacol Biol Psychiatry., 32, 1516-1520, 2008). In this regard, to exclude the influence of external noise or the like on the behavior of the mice, the head-twitches were counted in a soundproof chamber.
Similar ICR male mice to those used in Test 1 were randomly divided into eight groups including a normal group, a control group and six test groups. A 0.5% CMC-Na solution was orally administered to the normal group and the control group once a day for 14 days, and the atractylodes rhizome extract at different doses (20, 100 and 500 mg/kg) and the atractylodes lancea rhizome extract at different doses (20, 100 and 500 mg/kg), which were each prepared using a 0.5% CMC-Na solution, were orally administered to the six test groups once a day for 14 days. One hour after the completion of the final oral administration, 1 mg/kg of DOI was intraperitoneally injected to the mice of the control group and the test groups. Then, the head-twitches of the mice were counted in a similar manner as in Test 1. The results of the measurement were tested by the Dunnett's test using one-way analysis of variance for the comparison between multiple groups. Here, when p<0.05, it was determined that the result attained statistical significance.
The anti-hallucination actions of atractylenolide III and β-eudesmol were examined by the same method as that of Test 2 except for the points which are especially specified. In this test, atractylenolide III purified in Example 1 and commercial β-eudesmol (Lot. WEG2032, Wako Pure Chemical Industries, Ltd.) were dissolved in corn oil and used. The doses were set based on the average amounts of the compounds contained in the crude drugs and on the doses used in Test 2. Specifically, the doses of atractylenolide III were set at 0.03, 0.15 and 0.7 mg/kg, and the doses of β-eudesmol were set at 0.4, 2.0 and 10 mg/kg.
The anti-hallucination actions of atractylone and atractylenolide II were examined by the same method as that of Test 2 except for the points which are especially specified. In this test, atractylone and atractylenolide II purified in Example 1 were dissolved in corn oil and used. The doses of atractylone were set at 0.36, 1.8 and 9.0 mg/kg, and the doses of atractylenolide II were set at 0.03, 0.15 and 0.75 mg/kg.
The anti-hallucination action of atractylenolide I was examined by the same method as that of Test 2 except for the points which are especially specified. In this test, atractylenolide I purified in Example 1 was dissolved in corn oil and used. The doses of atractylenolide I were set at 0.03, 0.15 and 0.75 mg/kg.

[2] = tested on: hallucinogen-induced head-twitching response in mice; experiment: DOI-induced head-twitching response in mice after single application (one oral administration); conditions: single oral application, 0.03, 0.15 and 0.75 mg/kg, DOI i.p. after one hour, FIG. 7
Protocol: as §2
Similar ICR male mice to those used in Test 1 were randomly divided into eight groups including a normal group, a control group and six test groups. A 0.5% CMC-Na solution was […], and the atractylodes rhizome extract at different doses ([…]) and the atractylodes lancea rhizome extract at different doses ([…]), which were each prepared using a 0.5% CMC-Na solution, […] […] Then, the head-twitches of the mice were counted in a similar manner as in Test 1. […] Here, when p<0.05, it was determined that the result attained statistical significance. […]

head-twitches of mice = experiment: Production of hallucination model mouse with DOI; conditions: 1 mg/kg intraperitoneally, counted for five minutes after five minutes
Protocol: as §1, §2

## C=C1CCC[C@]2(C)Cc3occ(C)c3C[C@@H]12 [atractylone]
[1]; 9.0 mg/kg in corn oil
  number of head-twitches as compared to the control group: decreased significantly

## C=C1CCC[C@]2(C)C[C@]3(O)OC(=O)C(C)=C3C[C@@H]12 [atractylenolide III]
[2]
  number of head-twitches versus the control group: no significant difference
[1]; 0.15 mg/kg in corn oil
  number of head-twitches as compared to the control group: decreased significantly
[1]; 0.7 mg/kg in corn oil
  number of head-twitches as compared to the control group: decreased significantly

## COc1cc(CC(C)N)c(OC)cc1I (racemic) [DOI, (+/−) 2,5-dimethoxy-4-iodoamphetamine]
head-twitches of mice
  numbers of head-twitches compared with normal mice: higher

## C=C1CCC[C@]2(C)C=C3OC(=O)C(C)=C3C[C@@H]12 [atractylenolide I]
[1]; 0.15 mg/kg in corn oil
  number of head-twitches as compared to the control group: decreased significantly
[1]; 0.75 mg/kg in corn oil
  number of head-twitches as compared to the control group: decreased significantly

## atractylenolide II
[1]; 0.75 mg/kg in corn oil
  number of head-twitches as compared to the control group: decreased significantly

## C=C1CCC[C@]2(C)CC[C@@H](C(C)(C)O)C[C@@H]12 [β-eudesmol]
[1]; 10 mg/kg in corn oil
  number of head-twitches as compared to the control group: decreased significantly
